Test results from patent publication US12655116B2, “Substituted isophthalic acid diamides” (Bayer Aktiengesellschaft, priority 2020, dated 2026).

How the values were obtained:
ABUTH [1] = assay: Pre-emergence herbicidal action against ABUTH; format: in vivo, Abutilon theophrasti; settings: for Pre-emergence action against ABUTH (herbicidal activity): 80 g/ha, scored visually after 3 weeks vs untreated controls (100% = plants have died, 0% = like control plants); for Pre-emergence action against ABUTH (herbicidal activity in percent): dosage 20 g/ha, scored visually after 3 weeks vs untreated controls, 100% = plants have died, 0% = like control plants
Procedure, shortened: (§1)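 Sandy loam pots, seeds covered with soil, then surface-treated with WP or EC formulations at 600–800 l/ha water plus 0.2% wetting agent. Greenhouse, 3 weeks. Percent damage vs untreated controls.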

ALOMY [2] = assay: Pre-emergence herbicidal action against ALOMY; format: in vivo, Alopecurus myosuroides; settings: for Pre-emergence action against ALOMY (herbicidal activity): 80 g/ha, scored visually after 3 weeks vs untreated controls (100% = plants have died, 0% = like control plants)
Procedure, shortened: as §1

AMARE [3] = assay: Pre-emergence herbicidal action against AMARE; format: in vivo, Amaranthus retroflexus
Procedure, shortened: as §1

AVEFA [4] = assay: Pre-emergence herbicidal action against AVEFA; format: in vivo, Avena fatua; settings: 80 g/ha, pre-emergence
Procedure, shortened: as §1

ECHCG [5] = assay: Pre-emergence herbicidal action against ECHCG; format: in vivo, Echinochloa crus-galli
Procedure, shortened: as §1

MATIN [6] = assay: Pre-emergence herbicidal action against MATIN; format: in vivo, Matricaria inodora
Procedure, shortened: as §1

SETVI [7] = assay: Pre-emergence herbicidal action against SETVI; format: in vivo, Setaria viridis; settings: dosage 80 g/ha
Procedure, shortened: as §1

VERPE [8] = assay: Pre-emergence herbicidal action against VERPE; format: in vivo, Veronica persica
Procedure, shortened: as §1

VIOTR [9] = assay: Pre-emergence herbicidal action against VIOTR; format: in vivo, Viola tricolor
Procedure, shortened: as §1

ALOMY [10] = assay: Post-emergence herbicidal action against ALOMY; format: in vivo, Alopecurus myosuroides; settings: dosage 20 g/ha, visual assessment about 3 weeks after treatment vs untreated controls
Procedure, shortened: (§2)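 Visual % rating (0% = as untreated, 100% = dead) ~3 wk after spraying one-leaf-stage plants grown in sandy loam; WP/EC in water at 600–800 l/ha, 0.2% wetting agent.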

AMARE [11] = assay: Post-emergence herbicidal action against AMARE; format: in vivo, Amaranthus retroflexus; settings: 20 g/ha, visual assessment about 3 weeks after treatment, 100% = plants have died, 0% = like control plants
Procedure, shortened: as §2

AVEFA [12] = assay: Post-emergence herbicidal action against AVEFA; format: in vivo, Avena fatua; settings: 20 g/ha, visual assessment about 3 weeks after treatment, 100% = plants have died, 0% = like control plants
Procedure: Seeds of monocotyledonous and dicotyledonous weed and crop plants are laid out in sandy loam soil in wood-fiber pots, covered with soil and cultivated in a greenhouse under good growth conditions. 2 to 3 weeks after sowing, the test plants are treated at the one-leaf stage. The compounds of the invention, formulated in the form of wettable powders (WP) or as emulsion concentrates (EC), are then sprayed onto the green parts of the plants in the form of an aqueous suspension or emulsion at a water application rate equivalent to 600 to 800 l/ha, with addition of 0.2% wetting agent. After the test plants have been left to stand in the greenhouse under optimal growth conditions for about 3 weeks, the action of the preparations is assessed visually in comparison to untreated controls (herbicidal action in percent (%): 100% activity=the plants have died, 0% activity=like control plants). […] The tables below illustrate, in an illustrative manner, the post-emergence herbicidal action of the compounds of the invention, the herbicidal activity being stated in percent.

ECHCG [13] = assay: Post-emergence herbicidal action against ECHCG; format: in vivo, Echinochloa crus-galli
Procedure, shortened: as §2

MATIN [14] = assay: Post-emergence herbicidal action against MATIN; format: in vivo, Matricaria inodora
Procedure, shortened: as §2

PHBPU [15] = assay: Post-emergence herbicidal action against PHBPU; format: in vivo, Pharbitis purpurea
Procedure, shortened: as §2

SETVI [16] = assay: Post-emergence herbicidal action against SETVI; format: in vivo, Setaria viridis
Procedure, shortened: as §2

VERPE [17] = assay: Post-emergence herbicidal action against VERPE; format: in vivo, Veronica persica
Procedure, shortened: as §2

VIOTR [18] = assay: Post-emergence herbicidal action against VIOTR; format: in vivo, Viola tricolor
Procedure, shortened: as §2

ABUTH [19] = assay: Post-emergence herbicidal action against ABUTH; format: in vivo, Abutilon theophrasti; settings: visual assessment about 3 weeks after treatment vs untreated controls
Procedure, shortened: as §2

PHBPU [20] = assay: Pre-emergence herbicidal action against PHBPU; format: in vivo, Pharbitis purpurea; settings: dosage 80 g/ha
Procedure, shortened: as §1

DIGSA = assay: Pre-emergence herbicidal action against DIGSA; format: in vivo, Digitaria sanguinalis
Procedure, shortened: as §1

[21] = 20 g/ha, scored visually after 3 weeks vs untreated controls, 100% = plants have died, 0% = like control plants
[22] = 80 g/ha, scored visually after 3 weeks vs untreated controls (100% = plants have died, 0% = like control plants)

Structure (SMILES) | Pre-emergence action against ABUTH (herbicidal activity) (ABUTH [1]) | Pre-emergence action against ABUTH (herbicidal activity in percent) (ABUTH [1]) | Pre-emergence action against ALOMY (herbicidal activity) (ALOMY [2]) | Pre-emergence action against AMARE in % (AMARE [3]; [21]) | Pre-emergence action against AMARE in % (AMARE [3]; [22]) | Pre-emergence action against AVEFA in % (AVEFA [4]) | Pre-emergence action against ECHCG in % (ECHCG [5]; 80 g/ha) | Pre-emergence action against MATIN in % (MATIN [6]; dosage 20 g/ha) | Pre-emergence action against MATIN in % (MATIN [6]; dosage 80 g/ha) | Pre-emergence action against SETVI in % (SETVI [7]) | Pre-emergence action against VERPE in % (VERPE [8]; dosage 80 g/ha) | Pre-emergence action against VIOTR in % (VIOTR [9]; dosage 80 g/ha) | Post-emergence action at 20 g/ha against AMARE in % (AMARE [11]) | Post-emergence action at 20 g/ha against AVEFA in % (AVEFA [12]) | Post-emergence action against ECHCG in % (ECHCG [13]; dosage 20 g/ha) | Post-emergence action against MATIN in % (MATIN [14]; dosage 20 g/ha) | Post-emergence action against PHBPU in % (PHBPU [15]; dosage 20 g/ha) | Post-emergence action against SETVI in % (SETVI [16]; dosage 20 g/ha) | Pre-emergence action against VIOTR in % (VIOTR [9]; dosage 20 g/ha) | Post-emergence action against ABUTH in % (ABUTH [19]; dosage 20 g/ha) | other results
CSc1c(C(=O)Nc2nnnn2C)ccc(C(F)(F)F)c1C(=O)NCC1CC1 [Example 1-84] | 100% | 100% | 100% | 100% | 100% | 100% | 100% | 100% | 100% | 100% | 100% | 100% | 100% | 80% | 100% | 90% | 90% | 100% | – | – | Pre-emergence action against VERPE in % (VERPE [8]; dosage 20 g/ha): 80%; Post-emergence action against ALOMY in % (ALOMY [10]): 100%; Post-emergence action against PHBPU in % (PHBPU [15]; dosage 5 g/ha): 90%; Post-emergence action against SETVI in % (SETVI [16]; dosage 5 g/ha): 100%; Post-emergence action against VERPE in % (VERPE [17]; 20 g/ha): 90%; Post-emergence action against VIOTR in % (VIOTR [18]; 5 g/ha): 100%; Post-emergence action against VIOTR in % (VIOTR [18]; 20 g/ha): 100%
CSc1c(C(=O)Nc2nnnn2C)ccc(C(F)(F)F)c1C(=O)NC(C)C1CC1 (stereo not shown) [Example 1-352] | 100% | 100% | 80% | 100% | 100% | 80% | 100% | 100% | 100% | 100% | 100% | 100% | 100% | 80% | 100% | 90% | 90% | 100% | 100% | 100% | Pre-emergence action against VERPE in % (VERPE [8]; dosage 20 g/ha): 90%; Post-emergence action against ALOMY in % (ALOMY [10]): 80%; Post-emergence action against ECHCG in % (ECHCG [13]; dosage 5 g/ha): 100%; Post-emergence action against MATIN in % (MATIN [14]; dosage 5 g/ha): 80%; Post-emergence action against SETVI in % (SETVI [16]; dosage 5 g/ha): 80%; Post-emergence action against VERPE in % (VERPE [17]; 20 g/ha): 90%; Post-emergence action against VIOTR in % (VIOTR [18]; 5 g/ha): 100%; Post-emergence action against VIOTR in % (VIOTR [18]; 20 g/ha): 100%
CSc1c(C(=O)Nc2nnnn2C)ccc(C(F)F)c1C(=O)NC(C)C1CC1 (stereo not shown) [Example 1-353] | 100% | 100% | 90% | 100% | 100% | – | 100% | 100% | 100% | 100% | 100% | 100% | 100% | 80% | 100% | 90% | 90% | 100% | 100% | 80% | Pre-emergence action against ECHCG in % (ECHCG [5]; 20 g/ha): 90%; Post-emergence action against ALOMY in % (ALOMY [10]): 80%; Post-emergence action against ECHCG in % (ECHCG [13]; dosage 5 g/ha): 100%; Post-emergence action against MATIN in % (MATIN [14]; dosage 5 g/ha): 80%; Post-emergence action against VERPE in % (VERPE [17]; 5 g/ha): 80%; Post-emergence action against VERPE in % (VERPE [17]; 20 g/ha): 90%; Post-emergence action against VIOTR in % (VIOTR [18]; 5 g/ha): 100%; Post-emergence action against VIOTR in % (VIOTR [18]; 20 g/ha): 100%
CCn1nnnc1NC(=O)c1ccc(C(F)(F)F)c(C(=O)NCC(F)(F)F)c1C [Example 2-29] | 100% | 100% | 80% | 100% | 100% | 100% | 100% | 100% | 100% | 100% | – | 100% | – | 80% | 80% | 80% | 80% | 80% | 100% | 80% | Pre-emergence action against PHBPU in % (PHBPU [20]): 80%; Pre-emergence action against DIGSA in % (DIGSA; dosage 20 g/ha): 90%; Pre-emergence action against DIGSA in % (DIGSA; dosage 80 g/ha): 100%
CCn1nnnc1NC(=O)c1ccc(C(F)F)c(C(=O)NC2CC2)c1SC [Example 2-89] | 100% | 100% | 100% | 90% | 100% | 90% | 90% | 90% | 100% | 100% | 90% | 100% | 100% | 80% | 90% | 90% | 80% | 100% | 90% | 90% | Post-emergence action against ABUTH in % (ABUTH [19]; dosage 5 g/ha): 90%; Post-emergence action against ALOMY in % (ALOMY [10]): 90%; Post-emergence action against MATIN in % (MATIN [14]; dosage 5 g/ha): 90%; Post-emergence action against SETVI in % (SETVI [16]; dosage 5 g/ha): 90%; Post-emergence action against VERPE in % (VERPE [17]; 5 g/ha): 80%; Post-emergence action against VERPE in % (VERPE [17]; 20 g/ha): 90%; Post-emergence action against VIOTR in % (VIOTR [18]; 5 g/ha): 90%; Post-emergence action against VIOTR in % (VIOTR [18]; 20 g/ha): 90%
CCc1c(C(=O)Nc2nnnn2CC)ccc(C(F)(F)F)c1C(=O)NC(C)C1CC1 (stereo not shown) [Example 2-341] | 100% | 100% | 90% | 100% | 100% | 90% | 100% | 100% | 100% | 90% | 90% | 100% | 100% | 90% | 90% | 80% | 80% | – | 90% | 80% | Pre-emergence action against ALOMY (ALOMY [2]; 20 g/ha, scored visually after 3 weeks, 100% = plants have died, 0% = like control plants): 80%; Pre-emergence action against PHBPU in % (PHBPU [20]): 80%; Post-emergence action against ECHCG in % (ECHCG [13]; dosage 5 g/ha): 80%
